Data from patent US10590116B2, “3-indolyl furanoids as inhibitors of matrix metalloproteinase-9 for prevention of gastric ulcer and other inflammatory diseases” (Council of Scientific & Industrial Research, priority 2017, dated 2020).

The molecules below were run on indomethacin-induced acute gastric ulcers (assay: Protection studies of gastric ulceration in vivo (indomethacin-induced acute gastric ulcer, ulcer index)). Conditions: Mus musculus, po, 4 h; 12 mg/kg body weight, indomethacin 80 mg/kg, Balb/c mice.
Design: species or system Balb/c mice
Procedure: Animal experiments were carried out using Balb/c mice (20-25 g). Animals were anesthetized with ketamine (12 mg/kg b.w.) prior to cervical dislocation. Control and experimental animals were fasted for 6 hr with free access to water.
Balb/c mice (20-25 g) bred in-house with free access to food and water was used for all experiments. Experiments were designed to minimize animal suffering and to use the minimum number associated with valid statistical evaluation. Animals were anesthetized with ketamine (12 mg/kg b.w.) followed by cervical dislocation. Animal experiments were carried out following the guidelines of animal ethics committee of the institute. Control and experimental animals were fasted for 6 h with free access to water.
Before ulcer induction, animals of both control and experimental groups were kept separately in standard controlled conditions. Acute gastric ulcers were induced by oral administration of indomethacin at a dose of 80 mg/kg b.w. The control group received the vehicle only (olive oil), whereas the experimental group received indomethacin for gastric ulceration. After 4 h, the animals were sacrificed and gastric lesions in the fundic stomach were scored and expressed as obtained by counting the number of red bands/dots as follows: 0=no pathology; 1=a small pinhead ulcer spot; and 2-5=a band like lesion of 2-5 mm length. Total score become ˜50 when ulcer is severe. The sum of the total scores as divided by the number of animals was expressed as the mean ulcer index. Formulations were administered orally 30 min prior to indomethacin treatment to check the gastroprotective effect. Among all the chemical compositions of 3-indolyl furanoids synthesized (table 1), compounds 1, 2, 5, 8, 9 and 12 were tested for prevention studies against gastric inflammation in vivo.

Row | Compound | inhibition in vivo at 12 mg/kg [%]
1 | COc1ccc2[nH]c([S+]([O-])Cc3ncc(C)c(OC)c3C)nc2c1 (centres unmarked) [Omeprazole, reference compound] | 100

Same assay, conditions: Mus musculus; 50 mg/kg body weight oral in olive oil, indomethacin 80 mg/kg, scored after 4 h, Balb/c mice

Row | Compound | inhibition in vivo at 50 mg/kg [%]
2 | Oc1ccc2[nH]cc(-c3cc(-c4ccccc4)oc3-c3ccccc3)c2c1 [compound 1, 3-(2,5-diphenylfuran-3-yl)-1H-indol-5-ol] | 78
3 | COc1ccc2[nH]cc(-c3cc(-c4ccccc4)oc3-c3ccccc3)c2c1 [compound 2, 3-(2,5-diphenylfuran-3-yl)-5-methoxy-1H-indole] | 83
4 | COc1ccc2[nH]cc(-c3cc(-c4ccccc4)oc3-c3ccccc3)c2c1OC [compound 6, 4,5-dimethoxy-3-(2,5-diphenylfuran-3-yl)-1H-indole] | 74
5 | c1ccc(-c2cc(-c3c(-c4ccccc4)[nH]c4ccccc34)c(-c3ccccc3)o2)cc1 [compound 8, 2-phenyl-3-(2,5-diphenylfuran-3-yl)-1H-indole] | 65
6 | Oc1ccccc1-c1[nH]c2ccccc2c1-c1cc(-c2ccccc2)oc1-c1ccccc1 [compound 9, 3-(2,5-diphenylfuran-3-yl)-2-(2-hydroxyphenyl)-1H-indole] | 72
7 | COc1cccc2c1c(-c1cc(-c3ccccc3)oc1-c1ccccc1)cn2C [compound 12, 4-methoxy-1-methyl-3-(2,5-diphenylfuran-3-yl)-1H-indole] | 56

Each molecule was assayed against MMP-9 (Homo sapiens, UniProt P14780) (assay: In vitro analysis of anti-ulcer efficacy (structure-activity discussion)). Conditions: method not described.
MMP-9, sequence (P14780 94-707, species assumed): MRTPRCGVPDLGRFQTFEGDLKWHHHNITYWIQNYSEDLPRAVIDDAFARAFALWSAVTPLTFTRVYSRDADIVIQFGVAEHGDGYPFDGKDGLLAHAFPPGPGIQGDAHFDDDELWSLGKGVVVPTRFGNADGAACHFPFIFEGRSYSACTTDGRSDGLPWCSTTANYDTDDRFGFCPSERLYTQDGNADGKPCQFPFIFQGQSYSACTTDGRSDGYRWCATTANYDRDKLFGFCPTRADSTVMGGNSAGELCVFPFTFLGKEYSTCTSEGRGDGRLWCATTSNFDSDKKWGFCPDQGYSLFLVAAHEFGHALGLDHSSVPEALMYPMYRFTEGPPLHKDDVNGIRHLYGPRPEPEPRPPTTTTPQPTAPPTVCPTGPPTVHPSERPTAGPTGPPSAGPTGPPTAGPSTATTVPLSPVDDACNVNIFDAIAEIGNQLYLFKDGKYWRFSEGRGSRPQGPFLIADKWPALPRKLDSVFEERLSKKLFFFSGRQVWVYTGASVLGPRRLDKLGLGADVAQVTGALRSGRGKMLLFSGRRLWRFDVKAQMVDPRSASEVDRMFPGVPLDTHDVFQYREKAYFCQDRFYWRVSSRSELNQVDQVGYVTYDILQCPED

Row | Compound | anti-ulcer efficacy in vitro
8 | C=CCOc1ccc2[nH]cc(-c3cc(-c4ccccc4)oc3-c3ccccc3)c2c1 [compound 3, 5-(allyloxy)-3-(2,5-diphenylfuran-3-yl)-1H-indole] | moderate anti-ulcer efficacy
9 | CCCOc1ccc2[nH]cc(-c3cc(-c4ccccc4)oc3-c3ccccc3)c2c1 [compound 4, 3-(2,5-diphenylfuran-3-yl)-5-propoxy-1H-indole] | moderate anti-ulcer efficacy
10 | Cc1c(-c2cc(-c3ccccc3)oc2-c2ccccc2)c2ccccc2n1C [compound 11, 1,2-dimethyl-3-(2,5-diphenylfuran-3-yl)-1H-indole] | not acceptable to have good anti-ulcer activity
11 | COc1cccc2c1c(-c1cc(-c3ccccc3)oc1-c1ccccc1)cn2C [compound 12, 4-methoxy-1-methyl-3-(2,5-diphenylfuran-3-yl)-1H-indole] | not acceptable to have good anti-ulcer activity
